Our source for the IC50 values is EP2578588A1 (World-Trade Import-Export Wtie, AG, priority 2010, dated 2011).

The experiment deals with enzyme PDE-5 (Homo sapiens, UniProt O76074). As to the kind of experiment: Phosphodiesterase 5 (PDE-5) inhibition activity in in vitro tests. Format: biochemical. The following applies: read-out: CI5C. An excerpt: The following data illustrate the inhibiting activity of the compounds of the present invention on the enzyme PDE-5.
With `CCCc1nn(C)c2c(=O)[nH]c(-c3cc(S(=O)(=O)N4CCCNCC4)ccc3OCC)nc12` [Compound 1, 5-(5-(1,4-diazepan-1-ylsulfonyl)-2-ethoxiphenyl)-1-methyl-3-propyl-1H-pyrazolo[4,3-d]pyrimidin-7(6H)-one], the IC50 is 4.2 nM.
Under `CCCc1nn(C)c2c(=O)[nH]c(-c3cc(S(=O)(=O)N4CCCN(C(C)=O)CC4)ccc3OCC)nc12` [Compound 2, 5-(5-(4-acetyl-1,4-diazepan-1-ylsulfonyl)-2-ethoxyphenyl)-1-methyl-3-propyl-1H-pyrazolo[4,3-d]pyrimidin-7(6H)-one] stands 6.4 nM.
In the case of `CCCc1nn(C)c2c(=O)[nH]c(-c3cc(S(=O)(=O)N4CCCN(C)CC4)ccc3OCC)nc12` [Compound 3, 5-(2-ethoxy-5-(4-methyl-1,4-diazepan-1-ylsulfonyl)phenyl)-1-methyl-3-propyl-1H-pyrazolo[4,3-d]pyrimidin-7(6H)-one], the IC50 came out at 2.8 nM.
Under `CCCc1nn(C)c2c(=O)[nH]c(-c3cc(S(=O)(=O)N4CCCN(CCCO)CC4)ccc3OCC)nc12` [Compound 4] stands 1.8 nM; under `CCCc1nn(C)c2c(=O)[nH]c(-c3cc(S(=O)(=O)N4CCCN(C(=O)OC(C)(C)C)CC4)ccc3OCC)nc12` [Compound 5, tert-butyl 4-(4-ethoxy-3-(1-methyl-7-oxo-3-propyl-6,7-dihydro-1H-pyrazolo[4,3-d]pyrimidin-5-yl)phenylsulfonyl)-1,4-diazepane-1-carboxylate], 3.5 nM.
In the case of `CCCc1nn(C)c2c(=O)[nH]c(-c3cc(S(=O)(=O)N4CCCN(C)CC4)cnc3OCC)nc12` [Compound 6, 5-(2-ethoxy-5-(4-methyl-1,4-diazepan-1-ylsulfonyl)pyridin-3-yl)-1-methyl-3-propyl-1H-pyrazolo[4,3-d] pyrimidin-7(6H)-one] it was 2.2 nM; in that of `CCCc1nn(C)c2c(=O)[nH]c(-c3cc(S(=O)(=O)N4CCCN(CCC(=O)O)CC4)ccc3OCC)nc12` [Compound 7], 1.2 nM.
